Results reported in paper PMC7143076, “Anion Inhibition Studies of the β-Class Carbonic Anhydrase CAS3 from the Filamentous Ascomycete Sordaria macrospora” (Metabolites, 2020).
Read-outs that look alike come from different tables or passages of the source.

Biological target: T1, CAS3 (Sordaria macrospora, UniProt F7VU04)
T1 construct: gene SMAC_03179
Test: stopped-flow CO2 hydrase assay
Format: biochemical

[1] = read-out: CAS3 ^c, CO2 1.7-17 mM, pH 8.3, 10-20 mM TRIS, 10 mM NaClO4, 20 °C, 15 min preincubation, sodium salt
[2] = read-out: CAS3 ^c, CO2 1.7-17 mM, pH 8.3, 10-20 mM TRIS, 10 mM NaClO4, 20 °C, 15 min preincubation

T1 sequence (F7VU04 1-174 limits assumed): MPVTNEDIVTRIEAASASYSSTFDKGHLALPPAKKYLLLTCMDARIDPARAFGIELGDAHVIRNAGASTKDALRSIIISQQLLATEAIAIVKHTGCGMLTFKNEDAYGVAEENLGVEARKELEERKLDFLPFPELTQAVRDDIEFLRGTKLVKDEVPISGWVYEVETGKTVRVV

| Ki [1] [mM] | SMILES | Ki (read-out: CAS3 ^c) [mM] | also measured |
| --- | --- | --- | --- |
| 3.4 | O=C(O)O [HCO3^-] | – | – |
| 0.89 | CCN(CC)C(=S)S [Et2NCS2^-] | – | – |
| 8.5 | O=[N+]([O-])O [NO3^-] | – | – |
| 8.6 | S=C(S)S [CS3^2-] | – | – |
| 0.095 | NS(=O)(=O)O [H2NSO3H] | – | – |

More lines, now with the values behind:

| SMILES | Ki [1] [mM] | Ki (read-out: CAS3 ^c) [mM] | also measured |
| --- | --- | --- | --- |
| N#CS [SCN^-] | 7.3 | – | – |
| O=C(O)O [CO3^2-] | – | – | Ki (read-out: CAS2 ^b, CO2 1.7-17 mM, pH 8.3, 10-20 mM TRIS, 10 mM NaClO4, 20 °C, 15 min preincubation, sodium salt): 8 mM |
| S [HS^-] | – | 8.3 | – |
| O=NO [NO2^-] | 8.3 | – | – |
| NS(N)(=O)=O [H2NSO2NH2] | – | – | Ki [2]: 0.094 mM |
| N#CO [CNO^-] | – | 3.2 | – |
| O=[Te](=O)(O)O [TeO4^2-] | – | 8.1 | – |
| OB(O)c1ccccc1 [Ph-B(OH)2] | – | – | Ki [2]: 0.097 mM |
| N#C[SeH] [SeCN^-] | – | 7.1 | – |
| O=[Se](=O)(O)O [SeO4^2-] | – | 3.4 | – |
| [N-]=[N+]=[N-] [N3^-] | – | 7.2 | – |
